Results on six compounds are retold here after ChEMBL document CHEMBL3045072, “Anti-tyrosinase, antioxidant and antimicrobial activities of hydroxycinnamoylamides” (Med Chem Res, 2013).

The target of data set [1] is T1, Tyrosinase (Agaricus bisporus) (UniProt O42713).
T1 sequence (whole entry): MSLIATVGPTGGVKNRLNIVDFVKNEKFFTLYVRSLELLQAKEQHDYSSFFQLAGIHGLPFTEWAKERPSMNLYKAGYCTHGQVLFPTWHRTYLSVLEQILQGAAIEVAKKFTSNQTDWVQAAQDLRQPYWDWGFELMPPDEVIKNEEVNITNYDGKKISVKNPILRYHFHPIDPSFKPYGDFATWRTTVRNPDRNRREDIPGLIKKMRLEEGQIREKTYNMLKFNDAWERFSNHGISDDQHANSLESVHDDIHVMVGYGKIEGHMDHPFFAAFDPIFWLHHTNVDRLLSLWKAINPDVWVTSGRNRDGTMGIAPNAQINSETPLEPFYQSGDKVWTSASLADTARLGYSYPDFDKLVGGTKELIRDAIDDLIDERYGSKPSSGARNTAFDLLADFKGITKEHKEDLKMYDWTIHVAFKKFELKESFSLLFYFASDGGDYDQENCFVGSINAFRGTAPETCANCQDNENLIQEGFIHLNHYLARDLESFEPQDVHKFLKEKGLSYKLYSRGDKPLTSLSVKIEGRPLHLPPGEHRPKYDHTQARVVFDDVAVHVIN
The experiment in a line: Inhibition of monophenolase activity of mushroom tyrosinase using L-tyrosine as substrate after 30 min by dopachrome method.

In data set [2] the test system is Radical scavenging activity. As to the kind of experiment: Antioxidant activity assessed as DPPH radical scavenging activity at 1.8 mM after 20 min. The class given is functional.
Data set [3] relates to Radical scavenging activity. The experiment in a line: Antioxidant activity assessed as DPPH radical scavenging activity at 3.6 mM after 20 min. The class given is functional. On the technique in general: Loss of DPPH colour is used to gauge radical scavenging.
Data set [4] has as its system Radical scavenging activity. As to the kind of experiment: Antioxidant activity assessed as DPPH radical scavenging activity at 3.6 mM after 10 min. The class given is functional.
Data set [5] can be described thus: Inhibition of autoxidation of pure triacylglycerols of sunflower oil at 1 mM by iodometric analysis. As to conditions: 1000 µM. The class given is toxicity.
Data set [6] deals with Radical scavenging activity. The experiment in a line: Antioxidant activity assessed as DPPH radical scavenging activity at 0.9 mM after 20 min. The class given is functional.
Data set [7] deals with Radical scavenging activity. The experiment in a line: Antioxidant activity assessed as DPPH radical scavenging activity at 0.9 mM after 10 min. Format: functional.
In data set [8] the test system is Radical scavenging activity. As to the kind of experiment: Antioxidant activity assessed as DPPH radical scavenging activity at 1.8 mM after 10 min. The class given is functional.

Activity calls are given as the source filed them. The calls are words filed in the database; no cut-off is given here.

As to `O=C(/C=C/c1ccc(O)cc1)NCCc1ccc(O)cc1`, in data set [1], the inhibition result was “Active”.

In the case of `Oc1ccc(O)cc1`, the inhibition result in data set [1] is “Active”.

With `O=C(/C=C/c1ccc(O)cc1)NCCc1ccc(O)c(O)c1`, the inhibition entry in data set [1] is “Active”.

Turning to `O=C(O)/C=C/c1ccc(O)cc1` [COUMARIC ACID], the Activity in data set [2] turned out to be 4.7%; in data set [3] it was 6.1%; in data set [4], 4.5%; in data set [6], 2.9%; in data set [7] it was 2.1%; in data set [8], 3.7%. Moreover, in data set [5], the “inhibition (INH)” value was “Not Active”. Further, the inhibition result in data set [1] was “Active”.

As for `COC(=O)[C@H](Cc1ccc(O)cc1)NC(=O)/C=C/c1ccc(O)cc1`, the Activity in data set [2] came out at 1.42%; in data set [3], 1.88%; in data set [4], 1.44%; in data set [6], 0.71%; in data set [7], 0.64%; in data set [8], 1.04%. Also, the inhibition entry in data set [1] is “Active”.

Consider `COC(=O)[C@H](Cc1ccc(O)c(O)c1)NC(=O)/C=C/c1ccc(O)cc1`, for which the Activity in data set [2] is 34.8%; in data set [3] it was 67.1%; in data set [4], 64.4%; in data set [6], 19.1%; in data set [7], 18%; in data set [8] it was 33.3%. Besides, in data set [5], the “inhibition (INH)” value is recorded as “Active”. In data set [1], the inhibition entry is “Active”.
